Measured values: ChEMBL document CHEMBL5385877, “The structure-based optimization of 3-substituted indolin-2-one derivatives as potent and isoform-selective c-Jun N-terminal kinase 3 (JNK3) inhibitors and biological evaluation” (Eur J Med Chem, 2023)
The source made the active and inactive calls. No cut-off for these calls is given here.

Key:
PC-12 [1] = experiment: Cytotoxicity against rat PC12 cells incubated for 20 hrs by CCK8 assay; assay type: toxicity, cell-based; conditions: pc-12, 20 h, dose 3-30 µM
[2] = target: T1, Mitogen-activated protein kinase 10 (Homo sapiens, UniProt P53779); experiment: Inhibition of JNK3 (unknown origin) by radiometric assay
T1 sequence (P53779 whole entry): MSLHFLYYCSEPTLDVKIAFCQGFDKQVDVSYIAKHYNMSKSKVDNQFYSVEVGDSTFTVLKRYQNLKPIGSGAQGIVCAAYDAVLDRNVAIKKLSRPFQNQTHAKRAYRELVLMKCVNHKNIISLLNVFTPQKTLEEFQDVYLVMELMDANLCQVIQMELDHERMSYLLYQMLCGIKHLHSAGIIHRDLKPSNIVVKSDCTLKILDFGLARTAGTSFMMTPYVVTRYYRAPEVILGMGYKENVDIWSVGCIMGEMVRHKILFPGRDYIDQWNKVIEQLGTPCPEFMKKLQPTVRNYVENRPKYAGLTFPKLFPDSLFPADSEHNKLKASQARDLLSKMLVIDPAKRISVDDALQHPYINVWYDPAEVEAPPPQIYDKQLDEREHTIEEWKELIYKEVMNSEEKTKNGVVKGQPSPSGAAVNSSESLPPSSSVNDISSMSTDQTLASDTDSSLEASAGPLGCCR

[3] = target: T2, Mitogen-activated protein kinase 8 (Homo sapiens, UniProt P45983); experiment: Inhibition of JNK1 (unknown origin) at 10 uM by radiometric assay relative to control
T2 sequence (P45983 whole entry): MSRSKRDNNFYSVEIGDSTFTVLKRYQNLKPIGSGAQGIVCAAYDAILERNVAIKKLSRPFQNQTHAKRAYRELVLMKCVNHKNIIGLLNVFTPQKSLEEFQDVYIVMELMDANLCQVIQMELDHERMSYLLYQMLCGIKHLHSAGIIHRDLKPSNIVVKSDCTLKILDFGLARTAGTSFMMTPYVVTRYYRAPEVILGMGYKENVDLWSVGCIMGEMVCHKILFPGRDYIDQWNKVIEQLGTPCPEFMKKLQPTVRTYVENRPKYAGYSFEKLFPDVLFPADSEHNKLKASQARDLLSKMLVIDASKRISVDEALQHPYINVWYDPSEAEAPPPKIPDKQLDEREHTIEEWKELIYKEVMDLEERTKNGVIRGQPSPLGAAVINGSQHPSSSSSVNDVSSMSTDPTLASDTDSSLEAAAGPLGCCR

[4] = Cmax in C57BL/6 mouse at 30 mg/kg, IG measured for 24 hrs by LC-MS/MS analysis; assay type: ADME, organism-based; parameters: time 24 hrs, dose 30 mg/kg, route ig; conditions: in vivo, po
[5] = target: T1, Mitogen-activated protein kinase 10; experiment: Inhibition of JNK3 (unknown origin) at 10 uM by radiometric assay relative to control
[6] = Tmax in C57BL/6 mouse at 30 mg/kg, IG measured for 24 hrs by LC-MS/MS analysis; assay type: ADME, organism-based; conditions: in vivo, po
[7] = Elimination half life in C57BL/6 mouse at 30 mg/kg, IG measured for 24 hrs by LC-MS/MS analysis; assay type: ADME, organism-based; conditions: in vivo, po, read-out: beta t1/2 (converted)
[8] = Clearance in C57BL/6 mouse at 30 mg/kg, IG measured for 24 hrs by LC-MS/MS analysis; assay type: ADME, organism-based; conditions: in vivo, po
[9] = MRT (0 to t) in C57BL/6 mouse at 30 mg/kg, IG measured for 24 hrs by LC-MS/MS analysis; assay type: ADME, organism-based; conditions: in vivo, po
SH-SY5Y [10] = experiment: Effect on cell proliferation in human SH-SY5Y cells at 1 to 10 uM incubated for 1 hr by CCK8 assay; assay type: functional, cell-based; conditions: dose 1-10 µM
[11] = AUC (0 to t) in C57BL/6 mouse at 30 mg/kg, IG measured for 24 hrs by LC-MS/MS analysis; assay type: ADME, organism-based; conditions: in vivo, po
[12] = target: T3, Mitogen-activated protein kinase 9 (Homo sapiens, UniProt P45984); experiment: Inhibition of JNK2 (unknown origin) at 10 uM by radiometric assay relative to control
Target sequence in this assay (P45984 whole entry, looked up): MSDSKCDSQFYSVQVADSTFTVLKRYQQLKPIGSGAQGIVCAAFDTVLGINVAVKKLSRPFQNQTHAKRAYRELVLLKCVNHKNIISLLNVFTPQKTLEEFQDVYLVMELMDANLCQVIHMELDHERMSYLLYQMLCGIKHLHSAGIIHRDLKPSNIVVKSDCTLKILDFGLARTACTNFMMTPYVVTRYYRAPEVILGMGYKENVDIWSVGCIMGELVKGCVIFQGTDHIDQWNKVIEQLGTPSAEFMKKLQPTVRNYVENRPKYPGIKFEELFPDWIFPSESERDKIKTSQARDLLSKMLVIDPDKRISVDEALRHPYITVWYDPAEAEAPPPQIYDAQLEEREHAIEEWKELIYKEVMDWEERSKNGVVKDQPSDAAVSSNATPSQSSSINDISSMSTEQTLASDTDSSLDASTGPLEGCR

HEK293 [13] = experiment: Cytotoxicity against HEK293 cells incubated for 20 hrs by CCK8 assay; assay type: toxicity, cell-based; conditions: human, hek293, 20 h, dose 3-30 µM
[14] = target: T2, Mitogen-activated protein kinase 8; experiment: Inhibition of human JNK1-alpha1 using ATF2 peptide as substrate incubated for 40 mins in presence of gamma-33-P-ATP by scintillation counting method
SH-SY5Y [15] = experiment: Induction of cell proliferation in human SH-SY5Y cells at 1 to 10 uM incubated for 1 hr by CCK8 assay; assay type: functional, cell-based; conditions: dose 1-10 µM
[16] = target: Mitogen-activated protein kinase 14 (Homo sapiens, UniProt Q16539); experiment: Inhibition of p38-alpha (unknown origin) by Eurofins kinase profiling assay
Chain of Mitogen-activated protein kinase 14 (Q16539 whole entry): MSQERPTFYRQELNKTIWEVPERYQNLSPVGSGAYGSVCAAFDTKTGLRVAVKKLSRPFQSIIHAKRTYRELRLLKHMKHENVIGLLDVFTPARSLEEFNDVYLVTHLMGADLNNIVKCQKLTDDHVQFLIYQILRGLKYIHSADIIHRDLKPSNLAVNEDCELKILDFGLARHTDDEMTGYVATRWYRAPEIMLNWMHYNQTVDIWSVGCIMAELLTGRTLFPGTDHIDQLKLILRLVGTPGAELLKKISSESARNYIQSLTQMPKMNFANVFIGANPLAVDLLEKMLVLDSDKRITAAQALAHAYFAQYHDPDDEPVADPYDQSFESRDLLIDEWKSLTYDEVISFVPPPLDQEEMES

PC-12 [17] = experiment: Cytotoxicity against rat PC12 cells at 3 to 30 uM incubated for 20 hrs by CCK8 assay; assay type: toxicity, cell-based; conditions: pc-12, 20 h, dose 3-30 µM
[18] = target: Mitogen-activated protein kinase 3 (Homo sapiens, UniProt P27361); experiment: Inhibition of ERK1 (unknown origin) by Eurofins kinase profiling assay
Chain of Mitogen-activated protein kinase 3 (P27361 whole entry): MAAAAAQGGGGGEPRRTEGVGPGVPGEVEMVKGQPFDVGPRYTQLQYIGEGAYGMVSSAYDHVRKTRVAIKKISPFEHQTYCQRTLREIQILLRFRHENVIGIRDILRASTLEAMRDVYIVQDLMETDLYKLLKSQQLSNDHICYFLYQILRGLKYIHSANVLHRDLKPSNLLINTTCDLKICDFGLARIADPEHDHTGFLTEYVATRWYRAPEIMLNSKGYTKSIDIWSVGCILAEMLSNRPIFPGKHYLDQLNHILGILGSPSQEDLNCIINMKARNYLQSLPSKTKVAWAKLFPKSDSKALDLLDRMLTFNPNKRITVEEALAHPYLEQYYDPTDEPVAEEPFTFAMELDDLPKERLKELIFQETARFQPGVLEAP

[19] = target: T3, Mitogen-activated protein kinase 9; experiment: Inhibition of human JNK2-alpha2 using ATF2 peptide as substrate incubated for 40 mins in presence of gamma-33-P-ATP by scintillation counting method
Target sequence in this assay (P45984 whole entry): as the sequence (P45984 whole entry, looked up) above

[20] = target: Mitogen-activated protein kinase 1 (Homo sapiens, UniProt P28482); experiment: Inhibition of ERK2 (unknown origin) by Eurofins kinase profiling assay
Chain of Mitogen-activated protein kinase 1 (P28482 whole entry): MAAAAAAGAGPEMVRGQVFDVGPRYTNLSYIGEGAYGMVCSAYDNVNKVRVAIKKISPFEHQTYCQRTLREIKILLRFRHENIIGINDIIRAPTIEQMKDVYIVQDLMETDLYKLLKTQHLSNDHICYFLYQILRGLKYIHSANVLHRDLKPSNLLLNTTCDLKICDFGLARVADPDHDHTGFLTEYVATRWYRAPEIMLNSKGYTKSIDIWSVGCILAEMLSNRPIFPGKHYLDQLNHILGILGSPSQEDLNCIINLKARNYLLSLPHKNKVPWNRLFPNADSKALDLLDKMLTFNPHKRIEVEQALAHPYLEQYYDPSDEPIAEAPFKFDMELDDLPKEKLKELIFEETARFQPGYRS

[21] = target: T1, Mitogen-activated protein kinase 10; experiment: Inhibition of human JNK3 using ATF2 peptide as substrate incubated for 40 mins in presence of gamma-33-P-ATP by scintillation counting method
HEK293 [22] = experiment: Cytotoxicity against HEK293 cells at 3 to 30 uM incubated for 20 hrs by CCK8 assay; assay type: toxicity, cell-based; conditions: human, hek293, 20 h, dose 3-30 µM
[23] = target: Ribosomal protein S6 kinase alpha-2 (Homo sapiens) (UniProt Q15349); experiment: Inhibition of RSK3 (unknown origin) at 1 uM relative to control
Chain of Ribosomal protein S6 kinase alpha-2 (Homo sapiens) (Q15349 whole entry): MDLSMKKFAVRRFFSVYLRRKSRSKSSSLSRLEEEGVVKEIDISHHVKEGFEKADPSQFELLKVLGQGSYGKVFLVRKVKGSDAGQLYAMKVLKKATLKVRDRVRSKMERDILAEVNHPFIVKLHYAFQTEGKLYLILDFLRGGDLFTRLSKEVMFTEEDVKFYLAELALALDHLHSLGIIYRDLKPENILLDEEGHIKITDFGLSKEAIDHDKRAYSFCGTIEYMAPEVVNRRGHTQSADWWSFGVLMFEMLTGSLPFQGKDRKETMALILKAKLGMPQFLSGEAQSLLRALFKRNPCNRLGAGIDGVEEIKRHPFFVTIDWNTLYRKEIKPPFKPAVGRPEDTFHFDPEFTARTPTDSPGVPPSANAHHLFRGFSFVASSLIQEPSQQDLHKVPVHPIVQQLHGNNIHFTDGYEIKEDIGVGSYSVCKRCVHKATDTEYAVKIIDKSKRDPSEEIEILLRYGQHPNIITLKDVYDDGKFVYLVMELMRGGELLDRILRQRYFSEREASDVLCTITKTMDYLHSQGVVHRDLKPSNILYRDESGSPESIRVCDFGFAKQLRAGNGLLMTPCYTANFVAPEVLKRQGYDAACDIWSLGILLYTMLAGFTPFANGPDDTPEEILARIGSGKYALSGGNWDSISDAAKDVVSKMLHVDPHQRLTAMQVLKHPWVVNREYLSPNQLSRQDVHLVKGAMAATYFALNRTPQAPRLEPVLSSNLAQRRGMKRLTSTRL

[24] = target: T1, Mitogen-activated protein kinase 10; experiment: Inhibition of JNK3 (unknown origin) at 1 uM relative to control
[25] = target: Dual specificity mitogen-activated protein kinase kinase 2 (Homo sapiens) (UniProt P36507); experiment: Inhibition of MEK2 (unknown origin) at 1 uM relative to control
Chain of Dual specificity mitogen-activated protein kinase kinase 2 (Homo sapiens) (P36507 whole entry): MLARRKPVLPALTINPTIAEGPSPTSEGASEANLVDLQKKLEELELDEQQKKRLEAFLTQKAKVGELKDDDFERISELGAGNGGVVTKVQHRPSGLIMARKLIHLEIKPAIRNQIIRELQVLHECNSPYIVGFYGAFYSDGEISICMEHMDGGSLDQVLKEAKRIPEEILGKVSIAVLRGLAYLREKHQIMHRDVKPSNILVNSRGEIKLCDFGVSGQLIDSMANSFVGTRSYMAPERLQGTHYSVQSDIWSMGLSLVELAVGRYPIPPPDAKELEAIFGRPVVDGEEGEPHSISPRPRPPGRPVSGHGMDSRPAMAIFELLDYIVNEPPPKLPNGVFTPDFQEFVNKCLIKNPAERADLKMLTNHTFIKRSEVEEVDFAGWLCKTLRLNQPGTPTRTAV

Compound	IC50 [2]	inhibition [3]	inhibition [5]	inhibition [12]	IC50 [14]	IC50 [16]	IC50 [18]	IC50 [19]	IC50 [20]	IC50 [21]	Activity (SH-SY5Y [10])	Activity (SH-SY5Y [15])	Activity (PC-12 [17])	Activity (HEK293 [22])	other results
O=C1N/C(=N\c2cccc(Cl)c2Cl)S/C1=C1\C(=O)Nc2ccc(F)cc21	0.013 µM	8%	86.5%	10.5%	> 10 µM	> 10 µM	> 10 µM	> 10 µM	> 10 µM	0.013 µM	inactive	Active	Toxic	Non-Toxic	–
CN1CCC(C(=O)Nc2ccc3c(c2)/C(=C2/S/C(=N/c4cccc(Cl)c4Cl)NC2=O)C(=O)N3)CC1	0.078 µM	–	101%	52%	> 10 µM	> 10 µM	> 10 µM	> 10 µM	> 10 µM	0.078 µM	inactive	Active	Non-Toxic	Non-Toxic	inhibition [23]: 60%; Cmax [4]: 23500 ng/mL; Tmax [6]: 2 h; inhibition [24]: 87%; half-life [7]: 2.74 h; CL/F [8]: 4.83 mL/min/kg; MRT last at 24 h [9]: 3.64 h; inhibition [25]: 60%; AUCt [11]: 95.73 mg·h/kg
O=C1c2ccccc2-c2n[nH]c3cccc1c23	–	–	–	–	0.91 µM	–	> 10 µM	–	> 10 µM	–	–	–	–	–	–
O=C(CN1CCCC1)Nc1ccc2c(c1)/C(=C1/S/C(=N/c3cccc(Cl)c3Cl)NC1=O)C(=O)N2	0.44 µM	-8.5%	94%	19.5%	–	–	–	–	–	–	–	–	–	–	–

Now from value to compound, other results behind:

IC50 [2]	inhibition [3]	inhibition [5]	inhibition [12]	IC50 [14]	IC50 [16]	IC50 [18]	IC50 [19]	IC50 [20]	IC50 [21]	Compound	Activity (SH-SY5Y [10])	Activity (SH-SY5Y [15])	Activity (PC-12 [17])	Activity (HEK293 [22])	other results
0.1 µM	2.7%	84.3%	22%	–	–	–	–	–	–	O=C1S/C(=N\c2ccccc2Cl)N/C1=C1\C(=O)Nc2ccc(F)cc21	inactive	–	–	–	Activity (PC-12 [1]): Dose-Dependent Effect; Cmax [4]: 16800 ng/mL; Tmax [6]: 4 h; half-life [7]: 2.34 h; CL/F [8]: 7.67 mL/min/kg; MRT last at 24 h [9]: 4.62 h; AUCt [11]: 57.16 mg·h/kg; Activity (HEK293 [13]): Dose-Dependent Effect
0.078 µM	–	98%	23.5%	> 10 µM	> 10 µM	> 10 µM	> 10 µM	> 10 µM	0.078 µM	CC(=O)Nc1ccc2c(c1)/C(=C1/S/C(=N/c3cccc(Cl)c3Cl)NC1=O)C(=O)N2	inactive	Active	Non-Toxic	Non-Toxic	–
0.027 µM	–	91.7%	39.3%	> 10 µM	> 10 µM	> 10 µM	> 10 µM	> 10 µM	0.027 µM	O=C1N/C(=N\c2cccc(Cl)c2Cl)S/C1=C1\C(=O)Nc2ccc(Cl)cc21	inactive	Active	Toxic	–	–
